Test results taken from PubChem BioAssay (NCI).
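At the GI50, growth is halved. TGI marks complete inhibition of growth.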

Experiments:
Assay in all cases: inhibition of tumour cell growth, NCI panel, 384-well format
BT-549 breast = system: BT-549 breast
HOP-62 NSCLC = system: HOP-62 NSCLC
MOLT-4 leukemia = system: MOLT-4 leukemia
T-47D breast = system: T-47D breast
MDA-MB-435 melanoma = system: MDA-MB-435 melanoma
HOP-92 NSCLC = system: HOP-92 NSCLC
MDA-MB-468 breast = system: MDA-MB-468 breast
ACHN renal = system: ACHN renal
COLO 205 colon = system: COLO 205 colon
SF-268 CNS = system: SF-268 CNS
HT29 colon = system: HT29 colon
UACC-62 melanoma = system: UACC-62 melanoma
SN12C renal = system: SN12C renal
A498 renal = system: A498 renal
HCT-15 colon = system: HCT-15 colon
NCI/ADR-RES ovarian = system: NCI/ADR-RES ovarian
MCF7 breast = system: MCF7 breast
SF-539 CNS = system: SF-539 CNS
SK-MEL-2 melanoma = system: SK-MEL-2 melanoma
OVCAR-3 ovarian = system: OVCAR-3 ovarian
CCRF-CEM leukemia = system: CCRF-CEM leukemia
UACC-257 melanoma = system: UACC-257 melanoma
OVCAR-4 ovarian = system: OVCAR-4 ovarian
PC-3 prostate = system: PC-3 prostate
TK-10 renal = system: TK-10 renal
NCI-H460 NSCLC = system: NCI-H460 NSCLC
RXF 393 renal = system: RXF 393 renal
SNB-19 CNS = system: SNB-19 CNS
SK-OV-3 ovarian = system: SK-OV-3 ovarian
MALME-3M melanoma = system: MALME-3M melanoma
UO-31 renal = system: UO-31 renal
SK-MEL-28 melanoma = system: SK-MEL-28 melanoma
A549 NSCLC = system: A549 NSCLC
NCI-H522 lung = system: NCI-H522 lung
OVCAR-5 ovarian = system: OVCAR-5 ovarian
NCI-H322M lung = system: NCI-H322M lung
SF-295 CNS = system: SF-295 CNS
MDA-MB-231 breast = system: MDA-MB-231 breast
CAKI-1 renal = system: CAKI-1 renal
K-562 leukemia = system: K-562 leukemia
IGROV1 ovarian = system: IGROV1 ovarian
RPMI-8226 leukemia = system: RPMI-8226 leukemia
NCI-H23 lung = system: NCI-H23 lung
OVCAR-8 ovarian = system: OVCAR-8 ovarian
NCI-H226 lung = system: NCI-H226 lung
LOX IMVI melanoma = system: LOX IMVI melanoma
KM12 colon = system: KM12 colon
HCT-116 colon = system: HCT-116 colon
SW-620 colon = system: SW-620 colon
DU-145 prostate = system: DU-145 prostate
786-0 renal = system: 786-0 renal
M14 melanoma = system: M14 melanoma
SK-MEL-5 melanoma = system: SK-MEL-5 melanoma
U251 glioblastoma = system: U251 glioblastoma
HCC-2998 colon = system: HCC-2998 colon
SR leukemia = system: SR leukemia
HL-60(TB) leukemia = system: HL-60(TB) leukemia

SMILES: CO[C@@H]1/C=C\C=C(/C)C(=O)NC2=CC(=O)C(NCCN(C)C)=C(C[C@@H](C)C[C@@H](OC)[C@@H](O)[C@H](C)/C=C(\C)[C@H]1OC(N)=O)C2=O
- GI50 (BT-549 breast): < 10 nM
- TGI (BT-549 breast): < 10 nM
- GI50 (HOP-62 NSCLC): 16.8 nM
- TGI (HOP-62 NSCLC): 66.1 nM
- GI50 (MOLT-4 leukemia): 16.9 nM
- TGI (MOLT-4 leukemia): 33.7 nM
- GI50 (T-47D breast): 102 nM
- TGI (T-47D breast): 790 nM
- GI50 (MDA-MB-435 melanoma): 29.4 nM
- TGI (MDA-MB-435 melanoma): 1360 nM
- GI50 (HOP-92 NSCLC): 36.4 nM
- TGI (HOP-92 NSCLC): 137 nM
- GI50 (MDA-MB-468 breast): 23.8 nM
- TGI (MDA-MB-468 breast): 54.3 nM
- GI50 (ACHN renal): 128 nM
- TGI (ACHN renal): 2540 nM
- GI50 (COLO 205 colon): < 10 nM
- TGI (COLO 205 colon): < 10 nM
- GI50 (SF-268 CNS): 24.8 nM
- TGI (SF-268 CNS): 2320 nM
- GI50 (HT29 colon): < 10 nM
- TGI (HT29 colon): 1080 nM
- GI50 (UACC-62 melanoma): < 10 nM
- TGI (UACC-62 melanoma): 48.4 nM
- GI50 (SN12C renal): 12 nM
- TGI (SN12C renal): 41.6 nM
- GI50 (A498 renal): 50.8 nM
- TGI (A498 renal): 12700 nM
- GI50 (HCT-15 colon): 84.3 nM
- TGI (HCT-15 colon): 1310 nM
- GI50 (NCI/ADR-RES ovarian): 2180 nM
- TGI (NCI/ADR-RES ovarian): 5060 nM
- GI50 (MCF7 breast): 13.2 nM
- TGI (MCF7 breast): 147 nM
- GI50 (SF-539 CNS): < 10 nM
- TGI (SF-539 CNS): 24.6 nM
- GI50 (SK-MEL-2 melanoma): < 10 nM
- TGI (SK-MEL-2 melanoma): 27.5 nM
- GI50 (OVCAR-3 ovarian): 23.3 nM
- TGI (OVCAR-3 ovarian): 76.3 nM
- GI50 (CCRF-CEM leukemia): 38.1 nM
- TGI (CCRF-CEM leukemia): 138 nM
- GI50 (UACC-257 melanoma): 19 nM
- TGI (UACC-257 melanoma): 99 nM
- GI50 (OVCAR-4 ovarian): 17.4 nM
- TGI (OVCAR-4 ovarian): 359 nM
- GI50 (PC-3 prostate): 19.9 nM
- TGI (PC-3 prostate): 53.1 nM
- GI50 (TK-10 renal): 77.4 nM
- TGI (TK-10 renal): 846 nM
- GI50 (NCI-H460 NSCLC): < 10 nM
- TGI (NCI-H460 NSCLC): < 10 nM
- GI50 (RXF 393 renal): < 10 nM
- TGI (RXF 393 renal): 16.9 nM
- GI50 (SNB-19 CNS): 18.2 nM
- TGI (SNB-19 CNS): 2180 nM
- GI50 (SK-OV-3 ovarian): 12.5 nM
- TGI (SK-OV-3 ovarian): 90.6 nM
- GI50 (MALME-3M melanoma): < 10 nM
- TGI (MALME-3M melanoma): < 10 nM
- GI50 (UO-31 renal): 368 nM
- TGI (UO-31 renal): 11700 nM
- GI50 (SK-MEL-28 melanoma): 12.5 nM
- TGI (SK-MEL-28 melanoma): 9830 nM
- GI50 (A549 NSCLC): < 10 nM
- TGI (A549 NSCLC): 673 nM
- GI50 (NCI-H522 lung): 13 nM
- TGI (NCI-H522 lung): 30.5 nM
- GI50 (OVCAR-5 ovarian): 36 nM
- TGI (OVCAR-5 ovarian): 173 nM
- GI50 (NCI-H322M lung): < 10 nM
- TGI (NCI-H322M lung): 3400 nM
- GI50 (SF-295 CNS): 27.7 nM
- TGI (SF-295 CNS): 96.9 nM
- GI50 (MDA-MB-231 breast): 23.7 nM
- TGI (MDA-MB-231 breast): 68.1 nM
- GI50 (CAKI-1 renal): 52.7 nM
- TGI (CAKI-1 renal): 12100 nM
- GI50 (K-562 leukemia): 24.1 nM
- TGI (K-562 leukemia): 85.3 nM
- GI50 (IGROV1 ovarian): 22.6 nM
- TGI (IGROV1 ovarian): 63.1 nM
- GI50 (RPMI-8226 leukemia): 16.1 nM
- TGI (RPMI-8226 leukemia): 35.4 nM
- GI50 (NCI-H23 lung): 24.1 nM
- TGI (NCI-H23 lung): 67.8 nM
- GI50 (OVCAR-8 ovarian): 21.6 nM
- TGI (OVCAR-8 ovarian): 48.3 nM
- GI50 (NCI-H226 lung): 22.7 nM
- TGI (NCI-H226 lung): 84.5 nM
- GI50 (LOX IMVI melanoma): 18.6 nM
- TGI (LOX IMVI melanoma): 33.4 nM
- GI50 (KM12 colon): 15.2 nM
- TGI (KM12 colon): 86.4 nM
- GI50 (HCT-116 colon): 26.9 nM
- TGI (HCT-116 colon): 1340 nM
- GI50 (SW-620 colon): < 10 nM
- TGI (SW-620 colon): 78.1 nM
- GI50 (DU-145 prostate): < 10 nM
- TGI (DU-145 prostate): 22.4 nM
- GI50 ([…]-0 renal): 34.5 nM
- TGI (786-0 renal): 174 nM
- GI50 (M14 melanoma): < 10 nM
- TGI (M14 melanoma): 38 nM
- GI50 (SK-MEL-5 melanoma): < 10 nM
- TGI (SK-MEL-5 melanoma): 366 nM
- GI50 (U251 glioblastoma): < 10 nM
- TGI (U251 glioblastoma): 36.2 nM
- GI50 (HCC-2998 colon): < 10 nM
- TGI (HCC-2998 colon): 28.9 nM
- GI50 (SR leukemia): 12.7 nM
- TGI (SR leukemia): 27 nM
- GI50 (HL-60(TB) leukemia): 21 nM
- TGI (HL-60(TB) leukemia): 37.1 nM
